In the supplement of paper PMC11451515:

Assays:
Conditions in all cases: 48 h
NOMO1 [1] = experiment: cell viability relative to DMSO control; higher = less cytotoxic
Outline: (§1)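 Three leukemia lines were tested: NOMO1 and SEM at 500 cells/well and P12-Ichikawa at 1000 cells/well. Each was adapted for at least four passages in each medium and seeded in 5 μl in 1536-well plates, and library compounds in DMSO were pin-dosed from 47 μM to 0.79 nM in 11 threefold steps. After 48 h at 37°C, CellTiter-Glo One luminescence was read. Viability is a percentage relative to DMSO wells on each plate, with cell-free wells as background.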

P12-Ichikawa [2] = experiment: as above
Outline: as §1

SEM cells [3] = experiment: as above
Outline: as §1

P12-Ichikawa [4] = experiment: AUC of viability dose-response curve (% viability x log10 dose units); higher = less sensitive
Outline: (§2)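 Leukemia cells adapted to each medium were seeded at 500 or 1000 cells/well in 1536-well plates and dosed with library compounds in DMSO at 11 threefold doses from 47 μM to 0.79 nM for 48 h at 37°C. CellTiter-Glo One luminescence was normalised per plate to DMSO and cell-free wells, then fitted with a four-parameter log-logistic model over log10 doses. Area under the curve was taken from this fit by the trapezoidal rule, with curves above full viability scaled and curves failing quality control removed.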

SEM cells [5] = experiment: as above
Outline: as §2

NOMO1 [6] = experiment: as above
Outline: as §2

O=C1c2c(O)ccc(O)c2C(=O)c2c(NCCNCCO)ccc(NCCNCCO)c21
cell viability [%]
Conditions | NOMO1 [1] | P12-Ichikawa [2] | SEM cells [3]
HPLM + 10% dialyzed FBS, 0.000781 µM | 95 | 101 | 77.4
HPLM + 10% dialyzed FBS, 0.00234 µM | 113 | 105 | 81
HPLM + 10% dialyzed FBS, 0.00702 µM | 127 | 108 | 88.6
HPLM + 10% dialyzed FBS, 0.0211 µM | 131 | 110 | 105
HPLM + 10% dialyzed FBS, 0.0632 µM | 120 | 104 | 95
HPLM + 10% dialyzed FBS, 0.19 µM | 124 | 99.7 | 96.5
HPLM + 10% dialyzed FBS, 0.569 µM | 29.3 | 6.68 | 5.15
HPLM + 10% dialyzed FBS, 1.71 µM | 92.4 | 36.9 | 14.7
HPLM + 10% dialyzed FBS, 5.12 µM | 27.3 | 8.95 | 4.46
HPLM + 10% dialyzed FBS, 15.4 µM | 24.3 | 7 | 3.34
HPLM + 10% dialyzed FBS, 46.1 µM | 5.26 | 5.91 | 3.77
RPMI 5 mM glucose + 10% FBS, 0.000781 µM | 102 | 96 | 88.3
RPMI 5 mM glucose + 10% FBS, 0.00234 µM | 102 | 101 | 99.7
RPMI 5 mM glucose + 10% FBS, 0.00702 µM | 107 | 96.7 | 127
RPMI 5 mM glucose + 10% FBS, 0.0211 µM | 108 | 124 | 116
RPMI 5 mM glucose + 10% FBS, 0.0632 µM | 100 | 107 | 97.5
RPMI 5 mM glucose + 10% FBS, 0.19 µM | 105 | 94.3 | 79.1
RPMI 5 mM glucose + 10% FBS, 0.569 µM | 18.5 | 4.89 | 5.41
RPMI 5 mM glucose + 10% FBS, 1.71 µM | 110 | 32.4 | 10.6
RPMI 5 mM glucose + 10% FBS, 5.12 µM | 18.2 | 5.93 | 4.48
RPMI 5 mM glucose + 10% FBS, 15.4 µM | 17.2 | 5.48 | 2.93
RPMI 5 mM glucose + 10% FBS, 46.1 µM | 4.37 | 5.03 | 3.79
RPMI 5 mM glucose + 10% dialyzed FBS, 0.000781 µM | 107 | 97.5 | 90
RPMI 5 mM glucose + 10% dialyzed FBS, 0.00234 µM | 113 | 96 | 89
RPMI 5 mM glucose + 10% dialyzed FBS, 0.00702 µM | 108 | 98 | 96.4
RPMI 5 mM glucose + 10% dialyzed FBS, 0.0211 µM | 113 | 106 | 95.7
RPMI 5 mM glucose + 10% dialyzed FBS, 0.0632 µM | 112 | 106 | 97.9
RPMI 5 mM glucose + 10% dialyzed FBS, 0.19 µM | 103 | 102 | 99
RPMI 5 mM glucose + 10% dialyzed FBS, 0.569 µM | 53.2 | 8.07 | 4.03
RPMI 5 mM glucose + 10% dialyzed FBS, 1.71 µM | 107 | 45.4 | 15.7
RPMI 5 mM glucose + 10% dialyzed FBS, 5.12 µM | 20.3 | 9.1 | 4.3
RPMI 5 mM glucose + 10% dialyzed FBS, 15.4 µM | 27.1 | 7.62 | 2.61
RPMI 5 mM glucose + 10% dialyzed FBS, 46.1 µM | 3.81 | 9.05 | 3.1

AUC of viability dose-response curve
Conditions | HPLM + 10% dialyzed FBS | RPMI 5 mM glucose + 10% FBS | RPMI 5 mM glucose + 10% dialyzed FBS
P12-Ichikawa [4] | 286 | 280 | 296
SEM cells [5] | 251 | 261 | 261

CC(C)(Oc1ccc(C2CC2(Cl)Cl)cc1)C(=O)O (stereo not given)
cell viability [%], SEM cells [3]
Conditions | HPLM + 10% dialyzed FBS | RPMI 5 mM glucose + 10% FBS
0.000781 µM | 125 | 117
0.00234 µM | 131 | 109
0.00702 µM | 123 | 101
0.0211 µM | 125 | 111
0.0632 µM | 127 | 101
0.19 µM | 128 | 110
0.569 µM | 120 | 91.9
1.71 µM | 122 | 119
5.12 µM | 95.3 | 79.9
15.4 µM | 110 | 106
46.1 µM | 63.6 | 49

AUC of viability dose-response curve
Conditions | NOMO1 [6] | P12-Ichikawa [4] | SEM cells [5]
HPLM + 10% dialyzed FBS | 457 | 453 | 444
RPMI 5 mM glucose + 10% FBS | 454 | 447 | 464
RPMI 5 mM glucose + 10% dialyzed FBS | 453 | 453 | 456

CO[C@H]1/C=C\C=C(\C)C(=O)NC2=CC(=O)C(NCCN(C)C)=C(C[C@@H](C)C[C@H](OC)[C@H](O)[C@@H](C)/C=C(/C)[C@@H]1OC(N)=O)C2=O
SEM cells [3], HPLM + 10% dialyzed FBS
Conditions | cell viability [%]
0.000781 µM | 108
0.00234 µM | 124
0.00702 µM | 118
0.0211 µM | 120
0.0632 µM | 122
0.19 µM | 60.8
0.569 µM | 31.6
1.71 µM | 25.3
5.12 µM | 25.5
15.4 µM | 23
46.1 µM | 6.44

AUC of viability dose-response curve
Conditions | NOMO1 [6] | P12-Ichikawa [4] | SEM cells [5]
HPLM + 10% dialyzed FBS | 305 | 362 | 279
RPMI 5 mM glucose + 10% FBS | 308 | 328 | 274
RPMI 5 mM glucose + 10% dialyzed FBS | 309 | 333 | 268

OC(Cn1cncn1)(Cn1cncn1)c1ccc(F)cc1F
AUC of viability dose-response curve
Conditions | NOMO1 [6] | P12-Ichikawa [4] | SEM cells [5]
HPLM + 10% dialyzed FBS | 431 | 448 | 463
RPMI 5 mM glucose + 10% FBS | 449 | 448 | 451
RPMI 5 mM glucose + 10% dialyzed FBS | 449 | 462 | 467
